Entries after “also recorded” stand apart in the source; their conditions may differ. Where two headings read alike, the source gives them in different places.
Key:
C. elegans VC2010 = experiment: Manual phenotyping pilot screen of 3,584 known compounds (CCBN library); assay type: in vivo, Caenorhabditis elegans; conditions: dissecting microscope, positively confirmed drugs of CCBN library
[1] = tested on: C. elegans VC2010 (wild type); experiment: WormScan screen of C. elegans growth, fecundity, motility and mortality; assay type: in vivo, Caenorhabditis elegans; conditions: C. elegans; for IC50: 5 days exposure, read-out: Nematode IC50
Experimental: All compound libraries were stored in 96-well plates, with 80 drugs per plate (columns 1 and 12 left empty). A BioGrid BG600 pinning robot (Digilab / BioRobotics) was used for compound transfer. The robot uses a 96-pin tool (0.7 mm dia.) to transfer a nominal volume of 340 nL of compound. For retesting, compounds were hand pinned from the original library plates to assay plates using a single 0.7 mm dia. pin. The assay plates were 96-well clear flat-bottom microplates containing 2% χ1666 E.coli bacteria in 0.5X Liquid Nematode Growth Media (LNGM) plus cholesterol (Bacteria were mass-grown in rich media, and harvested by centrifugation to produce a thick paste of bacterial cells that was kept frozen at -20°C. Cells were resuspended at 2% W/V in 0.5X LNGM to produce liquid worm food). Using a COPAS Biosort (Union Biometrica), two L4 to young adult stage VC2010 worms were added to each well of the plate in a final volume of 45 μL. After five days of exposure to the compounds, the plates were scanned and the data analyzed. A five day time period was chosen to be able to observe effects over all stages of the life cycle and through at least one round of replication. The initial proof-of-principle primary screen was performed manually using a dissecting microscope. Phenotypes scored included decreased motility, reduced brood size, and/or death as described previously. For high throughput screening of the Chembridge and Maybridge compound libraries we used the program WormScan, which was adapted for screening 96-well flat-bottom LNGM plates. Using WormScan it was possible to screen four 96-well plates at a time. Plates were scanned twice, at a resolution of 1200 dots per inch, 16-bit grayscale, producing a jpeg image. The light intensity produced by the scanner was sufficient to cause negative phototaxis equivalent to a physical stimulus for mortality determination. The time required to scan four 96-well plates using an Epson Perfection V700 Photo Scanner was less than ten minutes. The time to screen a single plate was less than 1.2 minutes, with less than ten seconds between scans.
WormScan was used to screen for the same phenotypes as in the manual screen (reduced brood size, reduced behavior/motility response and increased mortality). Two sequential scans for each 96-well plate were aligned to a reference region of interest (ROI). Image analysis was based on a difference image score calculated for each ROI. The difference image score (WormScan score) was normalized using a “percent of control” method to derive a normalized WormScan score. […] Wild-type growth in 1% DMSO (Fig 1A) results in a normalized WormScan score of 100. Exposure to 50 nM ivermectin gives a score of 0 (Fig 1C), and complete absence of worms gives a score of 0 (Fig 1D). For the primary screen the WormScan score was calculated using custom macro scripts written for Fiji. For secondary screening and any subsequent studies the WormScan score was calculated using a standalone Java program (See supplemental). Probit regression of mortality was calculated using Mathematica 8.0.

[2] = tested on: Human embryonic kidney (HEK293) cells; experiment: HEK293 viability, MTT colorimetric assay; assay type: cell-based; conditions: read-out: Mammalian IC50
Experimental: Potential anthelmintic compounds identified from primary screening were further tested against mammalian cells and yeast to determine whether they had deleterious effects in those organisms. Human embryonic kidney (HEK293) cells were grown in Dulbecco’s Modified Eagle’s Medium (DMEM; Sigma) containing 5% fetal bovine serum (FBS; Sigma) in 96-well plates tissue culture plates. Compounds were added 24h post-plating at 10, 30, 100, or 300 μM final concentrations. Dimethyl sulfoxide (DMSO) was used as a negative control at 0.1%. Cells were treated for 24 or 48 hours, after which time viability was assessed using a 3-(4,5-dimethylthiazol-2-yl)-2,5-diphenyltetrazolium bromide (MTT) colorimetric assay. Percent viability was determined by comparing treatment values to DMSO control values.

[3] = tested on: S. cerevisiae yeast strain BY4743; experiment: Yeast growth rate (OD600) dose titration; assay type: cell-based; conditions: BY4743, YPD, growth rate reduced by 50%
Experimental: The S. cerevisiae yeast strain BY4743 (MATa/α his3Δ1/his3Δ1 leu2Δ0/leu2Δ0 LYS2/lys2Δ0 met15Δ0/MET15 ura3Δ0/ura3Δ0) was used for all yeast experiments and was grown using yeast extract peptone dextrose (YPD) media at pH 7 [52]. BY4743 was grown overnight to initial log phase and was then grown with the compound identified in the C. elegans assay. The growth rate was quantified by continuously monitoring the optical density of the liquid yeast growth at OD600. The compound was screened in a dose-titration in YPD as described. The IC50 was the concentration required to reduce the growth rate or Average G value by 50% compared to a vehicle control (2% DMSO).

Row | Molecule | Worm Reaction in Drug (C. elegans VC2010) | further results
1 | O=C1c2ccc(O)c(O)c2C(=O)c2c(O)ccc(O)c21 [Quinalizarin] | SLOW, unc, ns | 
2 | Cl.c1ccc([C@H]2CN3CCSC3=N2)cc1 [(-)-Tetramisole hydrochloride] | UNC! Paralyzed, lots of worms, 1 starved, 1 not | 
3 | COP(=S)(OC)Oc1ccc([N+](=O)[O-])cc1 [Methyl Parathione] | SLOW, UNC, ns, 1 gen only | 
4 | CN(C)c1ccc(C(=C2C=CC(=[N+](C)C)C=C2)c2ccc(N(C)C)cc2)cc1 [Gentian Violet] | SLOW! Ns, uncish, only 1 gen past | 
5 | Cc1nn(S(=O)(=O)c2ccccc2)c(C)c1Oc1ccc(Cl)cc1 [CID 2745791] |  | IC50 [1]: 99 µM; IC50 [2]: 54 µM; IC50 [3]: > 1000 µM
6 | CC(Cc1ccccc1)NCCC(c1ccccc1)c1ccccc1 (stereo not shown) [Prenylamine Lactate] | few progeny, not starved stalls at late larval? | 
7 | C=C1[C@@H]([C@@]2(C)[C@@H](OC(C)=O)CC(=O)O[C@](C)(COC(C)=O)[C@@H]2C(=O)OC)[C@@H](OC=O)[C@H](OC(=O)[C@H](O)[C@H](C)CC)[C@@]2(C)[C@H](c3ccoc3)CC(=O)[C@]12O [Prieurianin] | SLOW! Only orig adults, one well = dead, ns | 
8 | CC(=O)OCC1=C[C@H]2[C@@H]3C(C)(C)[C@]3(OC(=O)Cc3ccccc3)C[C@@H](C)[C@]2(O)[C@@H]2C=C(C)C(=O)[C@@]2(O)C1 [12-Deoxyphorbol 13-phenylacetate 20-acetate] | Adults DEAD, only L1s/2s, not starved | 
9 | CC(C)[C@@]1(O)[C@@H](OC(=O)c2ccc[nH]2)[C@@]2(O)[C@@]3(C)C[C@]4(O)O[C@@]5([C@H](O)[C@@H](C)CC[C@]35O)[C@@]2(O)[C@@]14C [Ryanodine] | UNC! 1: lots and starved, 2: few, not starved, less uncish | 
10 | CCCCc1ccc2[nH]c(NC(=O)OC)nc2c1 [Parbendazole] | UNC! Lots of worms in 1, not starved in 2 | 
11 | C=C(C)C1CC=C(CN(C)C2CCN(C)CC2)CC1 (stereo not shown) [CID 6456299] |  | IC50 [1]: > 500 µM; IC50 [2]: 184 µM; IC50 [3]: > 1000 µM
12 | COc1ccc(OCCNC(=O)c2c(F)cccc2Cl)cc1 [CID 2747279] |  | anthelmintic activity on retest of the 50 compounds most similar to CID 2747322 ([1]; re-pinned, two additional biological replicates): strong anthelmintic activity; IC50 ([1]; Caenorhabditis elegans, 120 h): 13 µM; IC50 ([2]; Homo sapiens): 190 µM; IC50 ([3]; Saccharomyces cerevisiae): > 1000 µM
13 | COc1cc2c(cc1OC)[C@@H]1C(=O)c3ccc4c(c3O[C@@H]1CO2)C=CC(C)(C)O4 [Deguelin] | SLOW, VERY few progeny, not starved, not very mobile | 
14 | CC(C)(C)c1cc(/C=C(\C#N)C(N)=S)cc(C(C)(C)C)c1O [Tyrphostin AG 879] | SLOW! Only on 2nd gen, ns | 
15 | Cl.Clc1ccc(Cn2c(CN3CCCC3)nc3ccccc32)cc1 [Clemizole Hydrochloride] | mostly young ones, a few adults but look sterile, a little unc | 
16 | O=C(Nc1ccc(Cl)cc1)Nc1ccc2ncccc2c1 [CID 2823320] |  | IC50 [1]: 40 µM; IC50 [2]: 45 µM; IC50 [3]: > 1000 µM
17 | CCOP(=S)(OCC)Oc1nc(Cl)c(Cl)cc1Cl [Chlorpyrifos] | both DEAD! | 
18 | CCN(CC)C(=O)NC1C=C2c3cccc4[nH]cc(c34)C[C@H]2N(C)C1.O=C(O)/C=C\C(=O)O (stereo partly drawn) [R(+)-Lisuride hydrogen maleate] | UNCish, starved but slow, lots of worms | 
19 | C=C1C([C@]2(C)C(CC(=O)OC)[C@@](C)(COC(C)=O)OC(=O)C[C@@H]2OC(C)=O)[C@@H](OC=O)[C@H](OC(=O)C(OC(C)=O)C(C)CC)[C@@]2(C)[C@H](c3ccoc3)CC(=O)C12O (stereo partly shown) [Prieuranin Acetate] | SLOW, barely 1 gen, ns; one well = only 1 worm | 

Row | Molecule | Worm Reaction in Drug (C. elegans VC2010) | further results
20 | CC(=O)O[C@@]12C[C@@H](C)[C@@]3(O)[C@@H](C=C(CO)C[C@]4(O)C(=O)C(C)=C[C@@H]34)[C@@H]1C2(C)C [12-Deoxyphorbol 13-acetate] | SLOW only L1/2s (& orig adults), lots unhatched eggs | 
21 | Avermectin B1 | adults DEAD | 
22 | COP(=O)(OC)C(O)C(Cl)(Cl)Cl (stereo not shown) [Trichlorfon] | VERY unhappy, unc-ish, a few dpy/hypercontracted animals | 
23 | CCCCCC(=O)O[C@]1(C(C)=O)CC[C@H]2[C@@H]3CCC4=CC(=O)CC[C@]4(C)[C@H]3CC[C@@]21C [Hydroxyprogesterone Caproate] | slower, one starved one not | 
24 | N#CSCCCOc1ccccc1Br [CID 2238042] |  | IC50 [1]: 357 µM; IC50 [2]: 67 µM; IC50 [3]: 338 µM
25 | O=C1c2ccc(-c3nc4cc(Cl)ccc4c(=O)o3)cc2C(=O)N1c1ccccc1-c1ccccc1 [CID 2222671] |  | IC50 [1]: > 500 µM; IC50 [2]: 234 µM; IC50 [3]: > 1000 µM
26 | C=C(C)[C@H]1Cc2c(ccc3c2O[C@@H]2COc4cc(OC)c(OC)cc4[C@@H]2C3=O)O1 [Rotenone] | SLOW, only one gen., few, not starved | 
27 | Cc1csc2sc(C(=O)CC(=O)C(F)(F)F)c(C)c12 [CID 2743002] |  | IC50 [1]: > 500 µM; IC50 [2]: 54 µM; IC50 [3]: 20 µM
28 | NNC(=O)CCn1c2ccc(Cl)cc2c2cc(Cl)ccc21 [CID 766260] |  | IC50 [1]: 282 µM; IC50 [2]: 44 µM; IC50 [3]: 113 µM
29 | CC[C@@]1(O)C(=O)OCc2c1cc1n(c2=O)Cc2cc3ccccc3nc2-1 [Camptothecin] | SLOW - progeny paralyzed, only adults moving, not starved; also recorded: SLOW 1 well only 3 worms (dead ones, unhatched eggs present), other starved, lots of babies, 2nd gen | 
30 | CC[C@@]1(O)C(=O)OCc2c1cc1n(c2=O)Cc2cc3ccccc3nc2-1 [Camptothecine (S, +)] | unc-ish, few progeny, sickly gonads not developed properly ie. Adults but not eggs, etc. | 
31 | COc1cccc2c1cc([N+](=O)[O-])c1c(C(=O)O)cc3c(c12)OCO3 [Aristolochic acid A] | SLOW, 1:only L2s, not starved, 2:1 sterile adult? | 
32 | COC(=O)Nc1nc2ccc(Sc3ccccc3)cc2[nH]1 [Fenbendazole] | UNC (lots of worms) | 
33 | CCCC(=O)O[C@@H]1[C@@H](C)[C@@]2(O)[C@@H](C=C(CO)C[C@]3(O)C(=O)C(C)=C[C@@H]23)[C@@H]2C(C)(C)[C@]12OC(=O)CCC [Phorbol 12, 13-dibutyrate] | SLOW only L1/2s (one gen. only), not starved | 
34 | C=C(C)[C@@]12O[C@@]3(c4ccccc4)O[C@@H]1[C@@H]1[C@@H]4O[C@]4(CO)[C@@H](O)[C@]4(O)C(=O)C(C)=C[C@H]4[C@@]1(O3)[C@H](C)[C@H]2OC(=O)/C=C/C=C/c1ccccc1 [Mezerein] | Adults DEAD, only L1s/2s, not starved | 
35 | COc1cc2c(cc1OC)[C@@H]1C(=O)c3ccc4c(c3O[C@@H]1CO2)CC(C(C)C)O4 (stereo partly shown) [Dihydrorotenone] | SLOW uncish only 1 gen ns | 
36 | COC(=O)Nc1nc2ccc(SC(C)C)cc2[nH]1 [Methiazole] | UNC! Lots of worms | 
37 | COc1ccccc1NC(=O)Nc1nc(-c2cccnc2)nc2ccccc12 [VUF 5574] | uncish adults, starved | 
38 | CNC(=O)O/N=C/C(C)(C)SC [Aldicarb] | UNC adults, but definitely STARVED | 

— paper PMC5068747, “Using C. elegans Forward and Reverse Genetics to Identify New Compounds with Anthelmintic Activity” (PLoS Neglected Tropical Diseases, 2016)
